Earlier results in paper PMC9916978, “Enantioselective Human Serum Albumin Binding of Apremilast: Liquid Chromatographic, Fluorescence and Molecular Docking Study” (International Journal of Molecular Sciences, 2023).

How the values were obtained:
Parameters in all cases: method as in earlier work
Conditions in all cases: 0.25 to 2.5 μg/mL; cited from earlier work
rat plasma = system: rat plasma
monkey plasma = system: monkey plasma
rabbit plasma = system: rabbit plasma
mouse plasma = system: mouse plasma
human plasma = system: human plasma

In the case of `CCOc1cc([C@@H](CS(C)(=O)=O)N2C(=O)c3cccc(NC(C)=O)c3C2=O)ccc1OC` [APR, apremilast], the “overall mean percent bound” value (rat plasma) is listed as 90.6%, the “overall mean percent bound” value (monkey plasma) is listed as 84.3% and the “overall mean percent bound” value (rabbit plasma) is listed as 80.9%. The “overall mean percent bound” value (mouse plasma) was 88.6% and the “overall mean percent bound” value (human plasma) was 68.3%.
